Test results reported in US8404803B2, “Cancer-associated antigen analogue peptides and uses thereof” (Chugai Seiyaku Kabushiki Kaisha, priority 2005, dated 2013).
“And” between values parts separate entries of the source, which are not always exact repeats. Identical values can stand only once.

Assays:
Type in all cases: cell-based, human
[1] = tested on: CD4-positive/IL-4-producing T cells; assay: Flow cytometry detection of CD4-positive/IL-4-positive T cells in peptide-stimulated mononuclear cell samples; settings: for CD4-positive/IL-4-positive frequencies, mean ± standard deviation: epitope determination, patient's mononuclear cell samples (FIG. 14); for CD4+ IL-4+ number of positive samples/tested samples: mononuclear cell samples cultured 48 hours with peptide and IL-2; for CD4+ IL-4+ number of positive samples/tested samples / CD4+ IL-4+ number of positive samples/tested samples × 100 (%): positive sample > mean of control + 2 × SD (OVCA10-MNC group, 1.148%); for frequency of CD4-positive/IL-4-positive cells, mean±standard deviation: all the analyzed mononuclear cell samples (FIG. 8); for frequency of CD4-positive/IL-4-positive T cells: FIGS. 6 and 7, IL-2 and analogue peptide added
Procedure: (§1) All operations concerning cell culture were performed aseptically. First, human peripheral mononuclear cell fractions (comprising T cells, B cells, macrophages and such; hereinafter referred to as “mononuclear cell samples”) were prepared from the blood samples by density gradient centrifugation. Next, these mononuclear cells were suspended at 1×10^5 cell/ml in complete media having the following composition: • Complete Medium: RPMI1640 culture medium (Gibco Laboratories Inc., Grand Island, N.Y.) to which 10% fetal bovine serum (Cell Culture Laboratories, Cleveland, Ohio), 0.2 mM L-glutamine, 100 U/mL penicillin, 100 μg/mL streptomycin (Gibco Laboratories Inc.), and 0.2 ng/mL recombinant human IL-2 (Dainippon Pharmaceutical Co., Tokyo, Japan) have been mixed.
(§2) Theses mononuclear cell samples were placed still in V-bottomed 96-well tissue culture plastic plates (Flow Laboratories Inc., Horsham, Pa.) in the presence and absence of peptides, and cultured for 48 hours at 37° C. in a CO2 culture apparatus (Sanyo Medica, Osaka, Japan).
(§3) A number of mouse-derived anti-human specific monoclonal antibodies with different fluorescences (hereinafter referred to as ‘monoclonal antibodies’) were used to simultaneously analyze by double-staining the CD markers CD4 and CD8, which are on the T cell membranes, and the cytokines within the T cells. As the monoclonal antibodies, products labeled with either fluorescent substance phycoerythrin (hereinafter ‘PE’) or fluorescein isothiocyanate (hereinafter ‘FITC’) were used (Miltenyi Biotec, Glandbach, Germany). For detection, a flow cytometry apparatus FACScan (Becton Dickinson) was used to measure the frequency of cells to which the monoclonal antibodies had bound. Positive cells are automatically detected by the flow cytometry apparatus.
(§4) Since positive cells cannot be identified after the cytokines have been secreted to the outside of the cells, detection was performed at a stage where the cytokines are inside the cells. Therefore, the Cytofix/Cytoperm Kit (Pharmingen, San Diego, Calif.) was used for the analysis, using methods recommended by the manufacturer and a positive control for detection recommended by the kit (Prussin C, Metcalfe D, Detection of intracytoplasmic cytokine using flow cytometry and directly conjugated anti-cytokine antibodies, J Immunol Meth. 188: 117-128, 1995). Specifically, brefeldin A (Pharmingen, San Diego, Calif.) was added at 0.7 μl/1 ml/well to stop protein production in the Golgi apparatus, and the peptide-stimulated mononuclear cell samples were treated at 37° C. for two hours. Next, the culture plates were placed on ice and the reaction was stopped by adding physiological saline at 4° C. The mononuclear cell samples were transferred into 15 ml tubes as though by washing with the physiological saline at 4° C., and were then centrifuged at 1600 rpm for ten minutes to remove the supernatant.
(§5) First, to dye CD4s on the cell surface, 10 μl of FITC-labeled mouse anti-human CD4 was added, with CD8 monoclonal antibody as a control, and this was reacted at 4° C. for 30 minutes. The cells were then separated with 0.5% bovine serum albumin/physiological saline at 4° C., then 0.5% bovine serum albumin/physiological saline at 4° C. was added thereto, and this was centrifuged at 1600 rpm for ten minutes at 4° C. to remove the supernatant.
(§6) Next, the mononuclear cell samples were fixed and their cell membranes were permeabilized. The cells were suspended in 250 μl of Cytofix/Cytoperm (Pharmingen) solution and reacted at 4° C. for 20 minutes. 10 μl of the aforementioned fluorescently labeled anti-IFNγ monoclonal antibody or anti-IL-4 monoclonal antibody was added to these mononuclear cell samples and reacted at 4° C. for 30 minutes. Then, the cells were separated by adding 0.5% bovine serum albumin/physiological saline at 4° C., and 0.5% BSA/PBS at 4° C. was further added thereto. After centrifugation at 1600 rpm for ten minutes at 4° C., the supernatant was removed. […]

[2] = tested on: CD4-positive/IFNγ-producing T cells; assay: Flow cytometry detection of CD4-positive/IFNγ-positive T cells in peptide-stimulated mononuclear cell samples; settings: for CD4-positive/IFNγ expression-positive frequencies, mean ± standard deviation: epitope determination, patient's mononuclear cell samples (FIG. 16); for CD4+ IFNγ+ number of positive samples/tested samples: mononuclear cell samples cultured 48 hours with peptide and IL-2; for CD4+ IFNγ+ number of positive samples/tested samples / CD4+ IFNγ+ number of positive samples/tested samples × 100 (%): positive sample > mean of control + 2 × SD (OVCA10-MNC group, 1.378%); for frequency of CD4-positive/INFγ-positive cells, mean±standard deviation: all of the analyzed mononuclear cell samples (FIG. 11); for frequency of CD4-positive/IFNγ-positive T cells: FIGS. 9 and 10, IL-2 and analogue peptide added
Procedure: as §1, §2, §3, §4, §5, §6

[3] = tested on: CD4-positive T cells; assay: Analysis of the CD4-positive T cell epitope (T cells positive for IL-4 or IFNγ); settings: peptides with ten amino acid residues reproducing the MUC16 primary sequence
Procedure: The results were recorded as: number of double staining-positive cells/total number of counted mononuclear cells ×100=positive cell frequency (%). Furthermore, peptide antigen-specific T cell reactions were determined to be positive when the individual frequencies of positive cells in the mononuclear cell samples were the same as or greater than the mean plus two standard deviations (mean+2SD) of the negative control group, where the negative control was a mononuclear cell sample group that had been stimulated with analogue peptide (OVCA10 stimulation). In addition, each of the peptide-stimulated groups were compared by using t-tests to measure the significant difference.
Next, to determine the T cell epitope (based not on the analogues but on the original sequence), the present inventors went back to the original amino acid sequence of the 11-times repeat sequences of MUC16 from which the 30 amino acid residue sequence: […] (SEQ ID NO: 45) common to OVCA11 and OVCA12 was derived. Furthermore, the sequence was divided into lots of ten amino acid residues to prepare OVCA101 (SEQ ID NO: 4), 102 (SEQ ID NO: 5), 103 (SEQ ID NO: 6), 104 (SEQ ID NO: 7), 105 (SEQ ID NO: 8), 106 (SEQ ID NO: 9), 107 (SEQ ID NO: 2), 108 (SEQ ID NO: 3), 109, 110, 111, 112, 113, 114, 115 (SEQ ID NO: 10) (FIG. 5), and T cells positive for IL-4 or IFNγ were detected using a method similar to the above.

[4] = typical example of flow cytometry

Sequence	CD4-positive/IL-4-positive frequencies, mean ± standard deviation ([1]; peptide 15 μM) [%]	CD4+ IL-4+ number of positive samples/tested samples [1]	CD4+ IL-4+ number of positive samples/tested samples × 100 (%) [1] [%]	CD4-positive/IFNγ expression-positive frequencies, mean ± standard deviation ([2]; peptide 15 μM) [%]	CD4+ IFNγ+ number of positive samples/tested samples [2]	CD4+ IFNγ+ number of positive samples/tested samples × 100 (%) [2] [%]	frequency of CD4-positive/IL-4-positive cells, mean±standard deviation ([1]; peptide 15 μM) [%]	frequency of CD4-positive/IL-4-positive T cells [1, 4] [%]	frequency of CD4-positive/INFγ-positive cells, mean±standard deviation ([2]; peptide 15 μM) [%]	frequency of CD4-positive/IFNγ-positive T cells [2, 4] [%]	recognized by CD4-positive T cells [3]	frequency of CD4-positive/IL-4-producing T cells at the time of epitope determination ([1]; FIG. 14, peptide 15 μM)	frequency of CD4-positive/IL-4-positive T cells at the time of epitope determination ([1]; typical example of flow cytometry, FIG. 13, IL-2 and peptide added) [%]	frequency of CD4-positive/IFNγ-producing T cells at the time of epitope determination ([2]; FIG. 16, peptide 15 μM)	frequency of CD4-positive/IFNγ-positive T cells at the time of epitope determination ([2]; typical example of flow cytometry, FIG. 15, IL-2 and peptide added) [%]	frequency of CD4-positive/IL-4-producing T cells compared to groups to which OVCA10 was added ([1]; FIG. 8, peptide 15 μM, statistically significant difference)	frequency of CD4-positive/IFNγ-producing T cells compared to groups to which OVCA10 was added ([2]; FIG. 11, peptide 15 μM, statistically significant difference)
ETTATGPLLV (listed as Homo sapiens) [OVCA104]	0.301±0.340	0/14	0	0.376±0.490	1/14	7.1	–	–	–	–	–	–	–	–	–	–	–
GHTAPGPLLV (listed as Homo sapiens) [OVCA102]	0.231±0.309	0/14	0	0.532±0.545	1/14	7.1	–	–	–	–	–	–	–	–	–	–	–
GHTAPVPLLI (listed as Homo sapiens) [OVCA101]	0.181±0.231	0/14	0	0.471±0.562	2/14	14.3	–	–	–	–	–	–	–	–	–	–	–
GPSAASPLLV (listed as Homo sapiens) [OVCA106]	0.649±1.337	2/14	14.3	0.641±1.082	2/14	14.3	–	–	–	–	–	–	–	–	–	–	–
GPTTASPLLV (listed as Homo sapiens) [OVCA105]	0.243±0.358	1/14	0	0.379±0.497	1/14	7.1	–	–	–	–	–	–	–	–	–	–	–
GTSGTPASLPGHTAPGPLLV (listed as Homo sapiens) [OVCA10]	–	1/33	3.0	–	1/33	3.0	0.252±0.448	0.05	0.328±0.525	0.11	–	–	–	–	–	–	–
LFTLNPTITN [OVCA108]	6.471±13.319	5/9	55.6	8.963±19.939	2/8	25.0	–	–	–	–	recognized by CD4-positive T cells	High frequency cases could be detected	1.17	High frequency cases could be detected	1.27	–	–
LRYEENMRHP (listed as Homo sapiens) [OVCA115]	0.281±0.424	1/9	11.1	0.161±0.157	0/8	0	–	–	–	–	–	–	–	–	–	–	–
LRYEENMRHPGSRKFNTTER (listed as Homo sapiens) [OVCA13]	–	0/6	0	–	0/6	0	–	–	–	–	–	–	–	–	–	–	–
PFTLNFTITNLRYEENMRHP (listed as Homo sapiens) [OVCA12]	–	18 of the 33 and 18/33	54.5	–	13 of the 33 and 13/33	39.4	5.263±9.059	0.57	5.071±10.315	0.28	–	–	–	–	–	higher	higher
RPIVPGPLLV (listed as Homo sapiens) [OVCA103]	0.211±0.269	0/14	0	0.331±0.467	1/14	7.1	–	–	–	–	–	–	–	–	–	–	–
STPGTSTVHLGTSGTPASLP (listed as Homo sapiens) [OVCA9]	–	0/29	0	–	2/29	6.9	–	0.05	–	0.02	–	–	–	–	–	–	–
